Test results: PMC6597546, “Identification of a potent benzoxaborole drug candidate for treating cryptosporidiosis” (Nature Communications, 2019)
pEC50: −log10 of the molar value. Several values for one entry are separate records, joined by “and”; a condition that tells them apart may be missing. Equal entries are not always repeated. Where two headings read alike, the source gives them in different places.

Tests used:
[1] = test system: C. parvum invasion of HCT-8 host cells; assay: HCT-8 host cell invasion assay; type: cell-based, Cryptosporidium parvum; conditions: 11.3 µM, HCT-8 invasion 3 h
Experimental: (§1) The invasion assay, DNA replication assay, asexual to sexual stage conversion, and time-kill curve assays were performed using fluorescence microscopy to enumerate parasites and host cell nuclei. Staining protocols are individually described for each assay. Unless noted otherwise, the details of image acquisition were as follows. An inverted Nikon Eclipse Ti2000 microscope with an automated stage and Perfect Focus was used with NIS-Elements Advanced Research software (Nikon, USA, version 4.30.01) to image the wells. The microscope was programmed to focus on the center of each well and then take a 3 × 3 composite image per well using a 20 × (0.45 NA) objective. Images were exported as .tiff files and parasites and host nuclei counted using a custom macro on ImageJ (National Institutes of Health, version 1.52a). Data were analyzed using Microsoft Excel and GraphPad Prism (version 6.01).
Host cell invasion was assayed by allowing C. parvum to invade host cell monolayers in the presence of compound, and enumerating parasites and host cells after just 3 h (i.e., before completion of a parasite division cycle)[38]. HCT-8 cells were grown in RPMI media supplemented with 120 U per mL penicillin and 120 μg per mL streptomycin and 10% heat inactivated fetal bovine serum (complete media) and C. parvum Iowa isolate oocysts from Bunch Grass Farms (Deary, ID) were used for infection. When cells reached a confluence of >99%, media was removed and replaced with 25 µL per well of fresh media containing twice the indicated concentrations of compounds and incubated for 1 h at 37 °C in a humidified CO2 incubator. In the meantime, oocysts were induced for excystation by first treating with 10 mM hydrochloric acid (diluted with distilled water) for 10 min at 37 °C followed by 2 mM sodium taurocholate (in phosphate buffered saline (PBS) with calcium and magnesium) for 10 min at 16 °C. Before and after each treatment, oocysts were spun down at 14,000 × g for 4.5 min and supernatant was removed. […]

[2] = test system: C. parvum DMC1 positive parasites; set-up: method as in PMID 31015448; conditions: cited from earlier work
[3] = test system: C. parvum (Bunch Grass Farms Iowa isolate); assay: Time-kill curve assay in HCT-8 cells; type: cell-based, Cryptosporidium parvum; conditions: for time-kill curve result: compound added ~24 h after infection of HCT-8
Experimental: as §1, with “6.01). […] C. parvum Iowa isolate oocysts (Bunch Grass Farms, Deary, ID) were treated to induce excystation and added to >90% confluent HCT-8 cells in 384-well plates. […] The monolayers were then washed, fixed, and stained with Vicia villosa lectin and DAPI at the indicated time points, and imaged as for the C. parvum growth assay. Separate 384-well plates were used for each time point. Parasite numbers were normalized to host cell nucleus numbers and expressed as the percentage of host cells infected. Drug-induced parasite decay was isolated from the reduction in parasites over time that occurs spontaneously in the HCT-8 culture system by expressing the number of parasites as the percentage of the number of parasites present at each time point under control (DMSO-treated) conditions.” for “6.01).”

[4] = test system: C. parvum; assay: C. parvum growth inhibition in HCT-8 cells (follow-up assay, Vicia villosa lectin staining); type: cell-based, Cryptosporidium parvum; conditions: Iowa (BGF, 10%FBS), HCT-8, single replicates, unit inferred, read-out: In vitro efficacy (Fig 2b, EC50)
Experimental: Follow-up assays were performed at the University of Vermont (UVM) and Calibr at Scripps Research by infection of the colonic adenocarcinoma cell line HCT-8 (ATCC CCL-244) and staining with the Vicia villosa lectin and DAPI[17],[32]. The FBS concentrations and parasites used for these assays were as indicated; parasite isolates and sources included C. parvum Iowa isolate oocysts purchased from Bunch Grass Farm (Deary, ID), C. parvum Iowa isolate oocysts purchased from the Sterling Laboratory (University of Arizona, Tucson, AZ), wild type C. parvum oocysts provided by Dr. Jenni Zambriski (Virginia Tech, Blacksburg, VA), and the C. hominis TU502 isolate purchased from Dr. Saul Tzipori (Tufts University Cummings School of Veterinary Medicine, North Grafton, MA). […] Amphotericin B (Sigma, catalog# A2942) was added to the culture media at 0.1 to 0.5 µg per mL for the DMC1 dose response assays.

[5] = test system: C. parvum (Bunch Grass Farms Iowa isolate); assay: NOD scid gamma (NSG) mouse model of established C. parvum infection; type: in vivo, NOD scid gamma mice; conditions: for parasite fecal shedding (qPCR), individual mice: 2,000 mg/kg
Experimental: NOD scid gamma mice (NOD.Cg-Prkdcscid Il2rgtm1Wjl/SzJ)[55] (NSG) were used to model chronic Cryptosporidium infection. All NSG mouse studies were performed in compliance with animal care guidelines and with approval by the University of Vermont Institutional Animal Care and Use Committee. NSG mice with normal flora were purchased from The Jackson Laboratory (Bar Harbor, ME) and were housed for at least a week for acclimatization. […] Fecal parasite shedding was measured using a quantitative PCR (qPCR) assay, and the primers named above as Cp18s forward and Cp18s reverse.

Which results are given for `CN(C)C[C@H](O)Cn1c2ccc(Br)cc2c2cc(Br)ccc21` (racemic) [Wiskostatin, wiskostatin]?
% Inhibition (normalized to DMSO control) [1]: 92%; inhibition at 11.3 µM ([1]; Cryptosporidium parvum, HCT-8, 3 h, read-out: % Inhibition (normalized to DMSO control)): 90%

With `O=C(Nc1ccc(Cl)cc1)N1CCN(c2ccc3nncn3n2)CC1` [MMV665917] as the compound, how does the “potency against asexual vs sexual stage parasites” value [2] read?
Its value is “equal potency against asexual and sexual stage parasites”.

For `CC(=O)Oc1ccccc1C(=O)Nc1ncc([N+](=O)[O-])s1` [Nitazoxanide, nitazoxanide], which “% C. parvum relative to DMSO control” value ([3]; EC90, 0 h exposure) is on record?
The value was 92.14% and 109.39% and 105.07% and 102.65%.

What about the “% C. parvum relative to DMSO control” value ([3]; EC90, 6 h exposure) of the same compound?
The value was 89.44% and 63.73% and 107.77% and 101.99%.

What about the “% C. parvum relative to DMSO control” value ([3]; EC90, 12 h exposure) of the same compound?
Its value is 64.07% and 50.47% and 61.96% and 52.34%.

What about the “% C. parvum relative to DMSO control” value ([3]; EC90, 24 h exposure) of the same compound?
Its value is 33.99% and 23.15% and 39.39% and 30.38%.

What about the “% C. parvum relative to DMSO control” value ([3]; EC90, 48 h exposure) of the same compound?
Its value is 66.11% and 87.75% and 96.10% and 82.36%.

What about the “% C. parvum relative to DMSO control” value ([3]; EC90, 72 h exposure) of the same compound?
Its value is 59.95% and 89.51% and 62.55% and 99.92%.

What about the time-kill curve result [3] of the same compound?
Its time-kill curve result is “likely parasitistatic or very slow acting”.

What about the time-kill curve result ([3]; listed as NTZ) of the same compound?
The time-kill curve result was “No exponential decay curve can be fit”.

And the “% Parasite / host nuclei” value ([3]; compound at 3 x EC90, 0 h exposure, listed as Nitazonxanide)?
The value was 25.13% and 23.57% and 25.93% and 26.94%.

And the “% Parasite / host nuclei” value ([3]; compound at 3 x EC90, 6 h exposure, listed as Nitazonxanide)?
Its value is 30.07% and 28.12% and 27.66%.

And the “% Parasite / host nuclei” value ([3]; compound at 3 x EC90, 24 h exposure, listed as Nitazonxanide)?
The value was 13.35% and 18.43% and 17.09% and 15.85%.

And the “% Parasite / host nuclei” value ([3]; compound at 3 x EC90, 48 h exposure, listed as Nitazonxanide)?
Its value is 16.05% and 22.2% and 25.78% and 20.53%.

And the “% Parasite / host nuclei” value ([3]; compound at 3 x EC90, 72 h exposure)?
The value was “Toxic”.

And the “% Parasite / host nuclei” value ([3]; compound at 6 x EC90, 0 h exposure, listed as Nitazonxanide)?
Its value is 26.94% and 25.13% and 23.57% and 25.93%.

What about the “% Parasite / host nuclei” value ([3]; compound at 6 x EC90, 6 h exposure, listed as Nitazonxanide) of the same compound?
The value was 30.15% and 26.39% and 33.45% and 27.12%.

What about the “% Parasite / host nuclei” value ([3]; compound at 6 x EC90, 24 h exposure, listed as Nitazonxanide) of the same compound?
The value was 10.66% and 16.54% and 13.19% and 15.55%.

And the “% Parasite / host nuclei” value ([3]; compound at 6 x EC90, 48 h exposure, listed as Nitazonxanide)?
The value was 24.32% and 23.51% and 19.71% and 19.93%.

What about the “% Parasite / host nuclei” value ([3]; compound at 6 x EC90, 72 h exposure) of the same compound?
The value was “Toxic”.

And the “% Parasite / host nuclei” value ([3]; compound at 9 x EC90, 0 h exposure, listed as Nitazonxanide)?
The value was 26.94% and 25.13% and 23.57% and 25.93%.

What about the “% Parasite / host nuclei” value ([3]; compound at 9 x EC90, 6 h exposure, listed as Nitazonxanide) of the same compound?
The value was 26.17% and 22.66% and 19.45% and 20.04%.

What about the “% Parasite / host nuclei” value ([3]; compound at 9 x EC90, 24 h exposure, listed as Nitazonxanide) of the same compound?
The value was 13.32% and 10.07% and 14.28% and 12.9%.

What about the “% Parasite / host nuclei” value ([3]; compound at 9 x EC90, 48 h exposure, listed as Nitazonxanide) of the same compound?
Its value is 23.17% and 21.12% and 20.67% and 21.26%.

What about the “% Parasite / host nuclei” value ([3]; compound at 9 x EC90, 72 h exposure) of the same compound?
Its value is “Toxic”.

What about the “% Parasite / host nuclei” value ([3]; compound at 12 x EC90, 0 h exposure, listed as Nitazonxanide) of the same compound?
Its value is 26.94% and 25.13% and 23.57% and 25.93%.

What about the “% Parasite / host nuclei” value ([3]; compound at 12 x EC90, 24 h exposure, listed as Nitazonxanide) of the same compound?
The value was 12.84% and 10.89% and 15.16% and 10.85%.

What about the “% Parasite / host nuclei” value ([3]; compound at 12 x EC90, 48 h exposure, listed as Nitazonxanide) of the same compound?
The value was 17.1% and 18.74% and 17.39% and 22.34%.

And the “% Parasite / host nuclei” value ([3]; compound at 12 x EC90, 72 h exposure)?
The value was “Toxic”.

And the “% Parasite / host nuclei” value ([3]; compound at EC50, 0 h exposure, listed as Nitazonxanide)?
The value was 26.94% and 25.13% and 23.57% and 25.93%.

And the “% Parasite / host nuclei” value ([3]; compound at EC50, 6 h exposure, listed as Nitazonxanide)?
The value was 25.94% and 27.24% and 39.66% and 24.06%.

And the “% Parasite / host nuclei” value ([3]; compound at EC50, 24 h exposure, listed as Nitazonxanide)?
The value was 49.74% and 52.37% and 49.99% and 64.54%.

And the “% Parasite / host nuclei” value ([3]; compound at EC50, 48 h exposure, listed as Nitazonxanide)?
Its value is 50.13% and 44.73% and 56.15% and 36.04%.

And the “% Parasite / host nuclei” value ([3]; compound at EC50, 72 h exposure, listed as Nitazonxanide)?
The value was 36.74% and 33.35% and 25.45% and 34.5%.

And the “% Parasite / host nuclei” value ([3]; compound at EC90, 0 h exposure, listed as Nitazonxanide)?
The value was 26.94% and 25.13% and 23.57% and 25.93%.

And the “% Parasite / host nuclei” value ([3]; compound at EC90, 6 h exposure, listed as Nitazonxanide)?
The value was 29.07%.

And the “% Parasite / host nuclei” value ([3]; compound at EC90, 24 h exposure, listed as Nitazonxanide)?
Its value is 18.51% and 12.77% and 20.62% and 15.68%.

And the “% Parasite / host nuclei” value ([3]; compound at EC90, 48 h exposure, listed as Nitazonxanide)?
The value was 23.29% and 31.8% and 31.94% and 28.34%.

And the “% Parasite / host nuclei” value ([3]; compound at EC90, 72 h exposure, listed as Nitazonxanide)?
Its value is 16.17% and 23.44% and 16.12% and 24.86%.

What about the pEC50 ([4]; Cryptosporidium parvum, HCT-8, in Vicia villosa) of the same compound?
The pEC50 was 5.93.

And the pEC50 [4]?
The pEC50 was 5.68 and 5.76.

For `NC[C@@H]1O[C@H](O[C@H]2[C@@H](O)[C@H](O[C@@H]3[C@@H](O)[C@H](N)C[C@H](N)[C@H]3O[C@H]3O[C@H](CO)[C@@H](O)[C@H](O)[C@H]3N)O[C@@H]2CO)[C@H](N)[C@@H](O)[C@@H]1O` [Paromomycin, paromomycin, reference compound], which “parasite fecal shedding (qPCR), individual mice” value ([5]; D7 (before treatment)) is on record?
The value was 801.749 oocysts/mg feces and 822.565 oocysts/mg feces and 435.223 oocysts/mg feces and 38.903 oocysts/mg feces.

What about the “parasite fecal shedding (qPCR), individual mice” value ([5]; D11) of the same compound?
Its value is 28.872 oocysts/mg feces and 141.665 oocysts/mg feces and 45.072 oocysts/mg feces and 47.829 oocysts/mg feces.

And the “reduction of fecal parasite shedding” value ([5]; paromomycin positive control, after 4 days of treatment, once daily oral)?
The value was about 90%.
